Calls of active or inactive are those of the source.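 The calls were made as follows: active = compounds giving half or more protection of infected cells from virus-caused growth loss, again on retest; inactive = the rest.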 Where a SMILES comes first, the peptide text is derived from it. The star is where a group is joined. Cbz = O=C(OCc1ccccc1)*; NHNH2 = NN*
Test system: CEM cells HIV-1 protection, formazan growth assay
Assay: NCI AIDS Antiviral Assay
Conditions: for IC50: measured here: growth of uninfected CEM cells
How it was run: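 Category rules: moderately active means at least 50% protection on retest, and confirmed active means 100% protection reproducibly. The underlying data came from a formazan growth assay in HIV-1-infected CEM cells.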

SMILES | EC50 [µM] | IC50 [µM] | outcome
COC(=O)c1cc2ccccc2c(CS(=O)(=O)O)c1O | > 200 | 56.2 | –
CC(C)(C)c1ccc(SS(=O)(=O)c2ccc(C(C)(C)C)cc2)cc1 | 20 | 22.9 | –
CC(=O)OCC1OC(n2c(-c3ccccc3)cc(-c3ccccc3)c(C#N)c2=O)C(OC(C)=O)C(OC(C)=O)C1OC(C)=O (stereo unspecified) | > 16.6 | > 16.6 | –
O=C(CCCc1ccccc1)NO | – | – | inactive
C=C(C)CC1=C(OCC)C(OC)(OCC)C1=O (stereo unspecified) | > 200 | > 200 | –
O=C(OC1(c2ccccc2)OC(=O)c2ccccc21)c1ccccc1C(=O)c1ccccc1 (stereo unspecified) | – | – | inactive
CCOC(=O)C1=C(Nc2ccccc2)OC/C1=N\NC(=O)Cc1ccccc1 | > 46.8 | > 46.8 | –
OC(c1ccccn1)c1c(Cl)cccc1Cl (stereo unspecified) | > 200 | > 200 | –
COc1ccc(/C(=N/O)c2ccccc2C2=Nc3ccccc3C(NCc3ccccc3)O2)cc1C (stereo unspecified) | > 200 | 22.4 | –
CC1=C2[C@H](c3ccccc3)C3C=CC2(c2ccccc23)N(C(=O)C(c2ccccc2)c2ccccc2)C1=O (stereo partly specified) | > 1.51 | > 1.51 | –
Cn1c(=O)cc(CNc2ccc(-c3ccccc3)cc2)c2ccccc21 | > 200 | 75.9 | –
O=c1[nH]c(Nc2ccc(F)c(Cl)c2)nc2nc[nH]c12 | > 200 | > 200 | –
C[C@H]1[C@H](NC(=O)/C(=N\OC(C)(C)C(=O)O)c2csc(N)n2)C(=O)N1S(=O)(=O)O | > 575 | > 575 | –
Cc1cc(C)c(C2=NO[C@@H]3C(=O)N(c4ccc(Cc5ccc(N6C(=O)[C@H]7C(c8c(C)cc(C)cc8C)=NO[C@H]7C6=O)cc5)cc4)C(=O)[C@H]23)c(C)c1 | > 7.59 | > 7.59 | –
O=S(=O)(O)c1ccc(O)c2ncc(Cl)cc12 | > 200 | > 200 | –
O=c1oc2ccccc2cc1Cl | > 145 | > 145 | –
NNC(=O)C(CCC(=O)O)NC(=O)C(CCC(=O)O)NC(=O)C(CCC(=O)O)NC(=O)CNC(=O)CNC(=O)OCc1ccccc1 (stereo unspecified) (Cbz-GGEEE-NHNH2; configuration not given here) | > 200 | > 200 | –
Cc1cn2c(=O)c3ccccc3nc2s1 | > 4.79 | > 4.79 | –
Cc1[cH-]c(=O)n(-c2ccccc2)n1.[Au+].[Au].c1ccc([PH+](c2ccccc2)c2ccccc2)cc1.c1ccc([PH+](c2ccccc2)c2ccccc2)cc1 | > 3.47 | > 3.47 | –
O=C(CC1Sc2ccccc2NC1=O)Nc1ccc([N+](=O)[O-])cc1[N+](=O)[O-] (stereo unspecified) | > 67.6 | > 67.6 | –
Cc1ccc(S(=O)(=O)N2CCCC2C(=O)O[C@H]2CC[C@H]3CC=C[C@H]32)cc1 (stereo partly specified) | > 200 | 20.9 | –
CCCCCCCCCCCCCCCCOCC(CP(=O)([O-])OCC[n+]1ccccc1)OC (stereo unspecified) | > 5.01 | 2.51 | –
CN(C)Cc1c(O)ccc2ccccc12 | > 468 | 245 | –
CCCCCCCCCC/C=C/CC(=O)SCCNC(=O)CCNC(=O)[C@@H](O)C(C)(C)COP(=O)(O)OP(=O)(O)OCC1OC(n2cnc3c(N)ncnc32)C(O)C1OP(=O)(O)O (stereo partly specified) | – | – | inactive
NC(=S)N/N=C/c1cccc(CC(O)(C(F)(F)F)C(F)(F)F)n1 | > 200 | 5.89 | –
CC(=O)/C(N=Nc1ccc(-n2c(C)nc3ccccc3c2=O)cc1)=C(/C)O | > 200 | > 200 | –
COC(=O)[C@H]1N[C@@H](C(=O)OC)C23CCC[C@H]2CC[C@]1(C(OC)OC)C3 | > 708 | 389 | –

SMILES | EC50 [µM] | IC50 [µM] | outcome
[CH3][Sn]([CH3])([Cl])[CH2]C(P(=O)(c1ccccc1)c1ccccc1)P(=O)(c1ccccc1)c1ccccc1 | > 50.1 | 2.29 | –
COC1OC(CS)C(N)C1OS(C)(=O)=O (stereo unspecified) | > 200 | 155 | –
NS(=O)(=O)c1nnc(NS(=O)(=O)c2ccc(F)cc2)s1 | > 200 | > 200 | –
O=C(CCc1ccc(O)c(O)c1)OCCc1ccccc1 | > 200 | 6.61 | –
CCCCCCCCCc1cc(O)c(O)cc1CCCCCCCCC | > 100 | 47.9 | –
C=C(Cl)c1c(OC)cccc1OCc1ccccc1 | > 200 | 97.7 | –
Nc1nc2n(n1)C(=O)C(=O)N2 | > 115 | > 115 | –
CCc1cccc(C)c1NC(=O)CCc1n[nH]c(=S)o1 | > 617 | > 617 | –
NC1=NN(c2ccccc2)C(=O)C1C(=O)C(=O)Nc1ccc(Cl)cc1 (stereo unspecified) | > 347 | 251 | –
CC(=O)[O-].CC(=O)[O-].O=C(N/N=C/c1cc(Cl)cc(Cl)c1[OH2+])c1ccncc1.[Co+2] | – | – | inactive
Cc1cc2c(cc1Cl)SC(NNC(=O)c1ccccc1)=NS2(=O)=O | 123 | 132 | –
CCOC(=O)[C@H]1Nc2ccc(O)cc2C2c3ccccc3CC21 (stereo partly specified) | > 302 | 56.2 | –
COc1ccc(NC(=O)CC(=O)NN)cc1 | > 200 | > 200 | –
CN(CCN)[C@H](CSSC[C@@H](c1ccccc1O)N(C)CCN)c1ccccc1O | > 200 | 17.8 | –
C[n+]1c(-c2ccc(/C=N/Nc3n[nH]c(=S)n3N/N=C/c3ccc(-c4cn5ccccc5[n+]4C)cc3)cc2)cn2ccccc21 | 18.6 | > 200 | –
Cc1ccc(C)n1-n1c(Cc2ccc(Cl)cc2)n[nH]c1=O | > 200 | 50.1 | –
CN1CC2=C(NC(=S)NC2c2ccc(Cl)cc2)/C(=C/c2ccc(Cl)cc2)C1 (stereo unspecified) | > 200 | 33.9 | –
O=C(Cn1cc(F)c(=O)[nH]c1=O)C12CC3CC(CC(C3)C1)C2 | > 200 | 186 | –
Cc1ccc2[nH]c3c(c2c1)[n+]([O-])c1ccccc1[n+]3[O-] | > 200 | 38.9 | –
CC1CCC2C1(C)CCC1C2(C)CCC2(C)C3CC(C)(C)CCC3(C)CCC12C (stereo unspecified) | 93.3 | > 100 | –
CN1CCN(C2=C(Cl)C3(OCCS3)C(F)(F)C2(F)F)CC1 (stereo unspecified) | > 132 | 45.7 | –
S=c1n(-c2ccc(Cl)cc2)c2nc3ccccc3nc(/c2=N\Nc2ccccc2)n1-c1ccccn1 | > 37.2 | 29.5 | –
Cc1ccc(-c2n[nH]c(Cc3nc(-c4ccc(C)cc4)n[nH]3)n2)cc1 | > 200 | > 200 | –
CN(C)c1ccc(C(c2c(O)c3ccccc3oc2=O)c2c(O)c3ccccc3oc2=O)cc1 | > 200 | 27.5 | –
Cc1cc(=O)oc2c(C)c3oc(CBr)cc3cc12 | > 200 | 0.447 | –
CCN=C1SC2C(=O)N(C)C(S1)C(=O)N2C | > 692 | 36.3 | –
CCOP(=O)(OCC)/C(=C/n1c(=S)[nH]c2ccc([N+](=O)[O-])cc21)C(=O)OC | > 200 | 115 | –

SMILES | EC50 [µM] | IC50 [µM] | outcome
CC(C)[C@@H]1CC[C@]2(COC(=O)CC3(CC(=O)O)CCCC3)CC[C@]3(C)[C@H](CC[C@@H]4[C@@]5(C)CC[C@H](OC(=O)CC6(CC(=O)O)CCCC6)C(C)(C)[C@@H]5CC[C@]43C)[C@@H]12 | > 200 | 6.46 | –
C[C@H]1CC(=O)C[C@@H]2CC[C@@H]3[C@H](CC[C@]4(C)C(OC(=O)c5cccc6c(=O)c7ccccc7[nH]c56)CC[C@@H]34)[C@]21C (stereo partly specified) | > 200 | 22.4 | –
COC(=O)c1cc(C(=O)Nc2cc(C(=CCC[C@H]3CC[C@@]4(C)[C@@H](CC[C@@H]5[C@@H]4CC[C@]4(C)[C@@H](C(C)CCCC(C)C)CC[C@@H]54)C3)c3cc(NC(=O)c4ccc(OC)c(C(=O)OC)c4)c(OC)c(C(=O)OC)c3)cc(C(=O)OC)c2OC)ccc1OC (stereo partly specified) | > 100 | > 100 | –
COc1cccc(/C=C\C#N)c1 | > 316 | > 316 | –
O=c1c2c3c(sc2nc2n1N=CN(c1ccccc1)C2)CCCC3 | > 200 | > 200 | –
CCCCCNc1nonc1N | > 200 | > 200 | –
CCOC(=O)C(=O)/C(=C/N1CC(=O)NC1=S)C(=O)OCC | > 200 | > 200 | –
COc1ccc(NC(=O)/C(Cc2cc(=O)oc3cc(O)ccc23)=N\NC(C)(C)C)c(OC)c1 | > 30.2 | > 30.2 | –
CC(=O)Nc1ncc(Sc2ccc([N+](=O)[O-])cc2)s1 | > 200 | > 200 | –
N#CCCN(CCC#N)Cc1c(O)c(O)c(CN(CCC#N)CCC#N)c2ccccc12 | 115 | 126 | –
COC(=O)NC12CC3CC(C(C)O1)C2N(Cc1ccccc1)C3 (stereo unspecified) | > 200 | > 200 | –
O=c1[nH]c(=O)n(C2CC(F)C(CO)O2)cc1C(OCC(F)(F)F)OCC(F)(F)F (stereo unspecified) | 37.2 | 195 | –
CC(C)=CC1CC(C)C2(CCC3(C)CC4C5/C(=C\CC32)C(=O)OC5CC4(C)O)O1 (stereo unspecified) | > 2 | 0.398 | –
Fc1nc(F)nc(-c2c3ccccc3c3n2CCS3)n1 | > 25.1 | > 25.1 | –
CC(=O)CCS(=O)(=O)O | > 200 | > 200 | –
CSCCC(NC(=O)Cc1ccc(C(=O)c2ccccc2)cc1)C(=O)O (stereo unspecified) | > 200 | > 200 | –
O=C(N/N=C/c1ccc(Cl)cc1)c1ccccc1Nc1ccccc1C(=O)N/N=C/c1ccc(Cl)cc1 | 55 | > 200 | –
COc1ccc(/S(C)=N/S(=O)(=O)c2ccc(C)cc2)cc1 (stereo unspecified) | > 288 | 263 | –
O=C(NCCC[P+](c1ccccc1)(c1ccccc1)c1ccccc1)OCc1ccccc1 | > 200 | 1.58 | –
CN(C)C1C(=O)C(C(=O)NCN2CCOB(c3ccccc3)OCC2)=C(O)C2(O)C(O)=C3C(=O)C4C(O)=CC=CC4C(C)(O)C3CC12 (stereo unspecified) | 31.6 | 39.8 | –
COc1cccc(C2=NC(C(C)C)CO2)c1 (stereo unspecified) | > 229 | > 229 | –
O=Cc1ccccc1OCCCC[P+](c1ccccc1)(c1ccccc1)c1ccccc1 | > 200 | 2.82 | –
CCOC(=O)[C@H]1Nc2c(cccc2[N+](=O)[O-])C2c3ccccc3CC21 (stereo partly specified) | > 15.5 | > 15.5 | –
CCOC(=O)C1(C(=O)OCC)Cc2c([nH]c3ccccc23)CN1C(=O)c1ccccc1 | > 22.4 | > 22.4 | –
CC(=O)N1c2ccccc2[C@H]2CCc3c([nH]c4ccccc34)[C@H]21 | > 20 | 12.9 | –
COP(=O)(OC)C(=NCc1ccccc1)NNc1ccc([N+](=O)[O-])cc1 | > 200 | 191 | –
